Data: US8314112B2 (Novartis AG, priority 2008, dated 2012)
One block for each molecule: values may come before it.

Columns and labels:
[1] = target: T1, human ALK5 (kinase domain, ALK5 T204D) (Homo sapiens, UniProt P36897, T204D); assay: ALK5 kinase assay ([33P] phosphate incorporation into casein); format: biochemical; settings: casein substrate, 1 μM unlabelled ATP
T1 construct: The kinase domain of human ALK5 (amino acids 200-503); made in house; host or cells: insect cells (baculovirus)
T1 sequence (P36897 200-503 T204D): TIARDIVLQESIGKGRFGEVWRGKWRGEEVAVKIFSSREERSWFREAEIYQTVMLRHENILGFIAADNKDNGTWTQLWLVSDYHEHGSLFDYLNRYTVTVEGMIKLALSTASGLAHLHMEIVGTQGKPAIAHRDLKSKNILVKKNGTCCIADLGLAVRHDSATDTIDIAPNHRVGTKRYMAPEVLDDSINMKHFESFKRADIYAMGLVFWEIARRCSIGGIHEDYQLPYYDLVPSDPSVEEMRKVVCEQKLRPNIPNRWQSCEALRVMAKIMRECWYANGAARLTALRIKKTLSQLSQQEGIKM
How it was run: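 His-tagged human ALK5 T204D kinase domain (aa 200-503, constitutively active, baculovirus/insect-cell expressed), 50 ng/well, preincubated 10 min with compound and dephosphorylated casein (200 μg/well) in Tris pH 7.4/MgCl2/MnCl2. Reaction started with 1 μM ATP plus [33P]ATP, 50 min at room temperature, EDTA-stopped; casein-bound 33P counted by scintillation after filter capture.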

[2] = tested on: dimethylnitrosamine induced liver fibrosis; settings: cited from earlier work
[3] = tested on: bleomycin-induced pulmonary fibrosis; settings: bleomycin-treated rats; cited from earlier work
[4] = given therapeutically to rat, 3 weeks treatment

IC50 [1]: 6.6 nM
Molecule: Cc1cccc(-c2cc(-c3cncc(-c4ccc(C(C)(C)N(C)CCO)cc4)c3)c3cc[nH]c3n2)n1 [Example 163, 2-{Methyl-[1-methyl-1-(4-{5-[6-(6-methyl-pyridin-2-yl)-1H-pyrrolo[2,3-b]pyridin-4-yl]-pyridin-3-yl}-phenyl)-ethyl]-amino}-ethanol]

IC50 [1]: 6.3 nM
Molecule: Cc1cccc(-c2cc(-c3cncc(-c4ccc(C(C)(C)N)cc4C)c3)c3cc[nH]c3n2)n1 [Example 164, 1-Methyl-1-(3-methyl-4-{5-[6-(6-methyl-pyridin-2-yl)-1H-pyrrolo[2,3-b]pyridin-4-yl]-pyridin-3-yl}-phenyl)-ethylamine]

Molecule: c1ccc(-c2cc(-c3cn[nH]c3-c3ccccn3)ccn2)cc1 [GW6604]
inhibition of extracellular matrix deposition [2, 4]: 60%
prevention of death rate [2, 4]: 40%
side effects ([2]; rat, in vivo): no obvious side effects

B1: follistatin: "follistatin, an antagonist of activin signalling" (protein, UniProt P19883 30-344, looked up)
Follistatin: GNCWLRQAKNGRCQVLYKTELSKEECCSTGRLSTSWTEEDVNDNTLFKWMIFNGGAPNCIPCKETCENVDCGPGKKCRMNKKNKPRCVCAPDCSNITWKGPVCGLDGKTYRNECALLKARCKEQPELEVQYQGRCKKTCRDVFCPGSSTCVVDQTNNAYCVTCNRICPEPASSEQYLCGNDGVTYSSACHLRKATCLLGRSIGLAYEGKCIKAKSCEDIQCTGGKKCLWDFKVGRGRCSLCDELCPDSKSDEPVCASDNATYASECAMKEAACSSGVLLEVKHSGSCNSISEDTEEEEEDEDQDYSFPISSILEW
lung fibrosis [3]: attenuated lung fibrosis
number of macrophages and neutrophils in bronchoalveolar lavage [3]: significantly reduced
